Source: PubChem BioAssay (NCI)
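A five-concentration, 48-hour dose response in 96-well plates underlies each endpoint, interpolated linearly between surrounding concentrations. The concentration for 50% growth inhibition is given as GI50. TGI denotes the concentration required for complete inhibition of growth.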 Where a SMILES comes first, the peptide text is derived from it. The star is where a group is joined. Bn = c1ccc(C*)cc1

What was measured:
Assay in all cases: growth of human tumour cells (NCI), 48 h
CCRF-CEM leukemia = tested on: CCRF-CEM leukemia
OVCAR-5 ovarian = tested on: OVCAR-5 ovarian
EKVX NSCLC = tested on: EKVX NSCLC
SNB-19 CNS = tested on: SNB-19 CNS
MCF7 breast = tested on: MCF7 breast
NCI-H522 lung = tested on: NCI-H522 lung
SK-MEL-5 melanoma = tested on: SK-MEL-5 melanoma
OVCAR-8 ovarian = tested on: OVCAR-8 ovarian
NCI-H23 lung = tested on: NCI-H23 lung
DU-145 prostate = tested on: DU-145 prostate

SMILES	TGI (CCRF-CEM leukemia)	TGI (OVCAR-5 ovarian)	TGI (EKVX NSCLC)	TGI (SNB-19 CNS)	TGI (MCF7 breast)	TGI (NCI-H522 lung)	TGI (SK-MEL-5 melanoma)	TGI (OVCAR-8 ovarian)	TGI (NCI-H23 lung)	TGI (DU-145 prostate)	GI50 (CCRF-CEM leukemia)	GI50 (OVCAR-5 ovarian)	GI50 (SK-MEL-5 melanoma)	GI50 (DU-145 prostate)	GI50 (EKVX NSCLC)	GI50 (SNB-19 CNS)	GI50 (NCI-H23 lung)	GI50 (OVCAR-8 ovarian)	GI50 (MCF7 breast)	GI50 (NCI-H522 lung)
CSC(SC)=C1C(=O)N(c2ccccc2)N=C1C	49.8 µM	> 100 µM	54.6 µM	98.1 µM	46 µM	59 µM	24.3 µM	> 100 µM	–	–	–	–	–	–	–	–	–	–	–	–
Cc1ccc(-c2c(C#N)c(-c3ccc([N+](=O)[O-])cc3)c(C#N)c(=O)n2NS(=O)(=O)c2ccccc2)cc1	58.3 µM	> 100 µM	> 100 µM	> 100 µM	54.1 µM	> 100 µM	26.9 µM	> 100 µM	–	–	–	–	–	–	–	–	–	–	–	–
CCCCC/C(C=O)=C\c1ccccc1	> 100 µM	–	> 100 µM	> 100 µM	> 100 µM	–	> 100 µM	> 100 µM	> 100 µM	> 100 µM	–	–	–	–	–	–	–	–	–	–
Nc1nc(Nc2ccccc2)sc1C(=O)c1c[nH]c2ccccc12	14.5 µM	24.9 µM	27.4 µM	20.3 µM	26.9 µM	–	25.1 µM	–	49.2 µM	22.5 µM	–	–	–	–	–	–	–	–	–	–
C[C@]12CC[C@H](O)C=C1CC[C@@H]1[C@@H]2CC[C@]2(C)C(c3ccc(=O)oc3)CC[C@]12O (some centres undefined)	0.151 µM	0.321 µM	0.145 µM	0.237 µM	0.173 µM	0.0155 µM	0.0163 µM	0.0527 µM	0.023 µM	–	–	–	–	–	–	–	–	–	–	–
COC(=O)C(CC(C)C)NC(=O)C(N)Cc1ccc(OCc2ccccc2)cc1 (centres undefined) (H-Tyr(Bn)-Leu-OMe; configuration not given here)	> 10 µM	> 10 µM	> 10 µM	> 10 µM	–	> 10 µM	> 10 µM	> 10 µM	> 10 µM	> 10 µM	–	–	–	–	–	–	–	–	–	–
c1csc(-c2c3ccc(=[N+]4CCCCC4)cc-3oc3cc(N4CCCCC4)ccc23)c1	1.07 µM	0.733 µM	–	–	–	–	0.276 µM	–	–	0.201 µM	0.0503 µM	0.202 µM	0.141 µM	0.0578 µM	–	–	–	–	–	–
CC1(C)[C@@H](Cn2cnc3c(Cl)nc(N)nc32)CC[C@@]1(C)CO	> 100 µM	> 100 µM	> 100 µM	> 100 µM	> 100 µM	–	47.3 µM	–	–	> 100 µM	–	–	–	–	–	–	–	–	–	–
Cc1cc2nc(-c3cc(C(C)(C)C)c(O)c(C(C)(C)C)c3)[nH]c2cc1C	5.71 µM	> 100 µM	> 100 µM	> 100 µM	–	> 100 µM	> 100 µM	> 52.8 µM	> 100 µM	> 100 µM	–	–	–	–	–	–	–	–	–	–
O=C([CH-]C(=O)c1ccccc1)c1ccccc1.O=C([CH-]C(=O)c1ccccc1)c1ccccc1.[O]=[U+2]=[O]	–	–	> 100 µM	18.9 µM	–	–	9.12 µM	> 100 µM	> 100 µM	–	–	–	2.77 µM	–	4.78 µM	3.36 µM	4.01 µM	3.02 µM	–	–
CN1COCc2cc3cc4c(cc3nc21)OCCO4	> 100 µM	> 100 µM	> 100 µM	> 100 µM	> 100 µM	> 100 µM	> 100 µM	> 100 µM	–	–	–	–	–	–	–	–	–	–	–	–
Nc1nc(Nc2ccc(Cl)cc2)sc1C(=O)c1cccs1	> 100 µM	> 100 µM	69.7 µM	47.6 µM	> 100 µM	–	> 100 µM	–	> 100 µM	> 100 µM	–	–	–	–	–	–	–	–	–	–
CCN1C(=O)N(CC)C2Nn3c(s/c(=C4\C(=O)N(C)c5ccccc54)c3=O)=NC21 (centres undefined)	> 100 µM	–	> 100 µM	–	> 100 µM	> 100 µM	> 100 µM	> 100 µM	> 100 µM	–	3.3 µM	–	4.61 µM	–	2.25 µM	–	3.38 µM	4.3 µM	1.03 µM	2.98 µM
CCCCC#CS(=O)(=O)C(F)(F)F	> 100 µM	> 100 µM	> 100 µM	> 100 µM	> 100 µM	> 100 µM	> 100 µM	> 100 µM	> 100 µM	–	–	–	–	–	–	–	–	–	–	–
O=C(O)CSC(NC(=O)C(C(F)(F)F)C(F)(F)F)(C(F)(F)F)C(F)(F)F	> 100 µM	> 100 µM	> 100 µM	> 100 µM	–	–	> 100 µM	83.3 µM	> 100 µM	–	–	–	–	–	–	–	–	–	–	–
O=C(O)CC(NC(=O)/C(=C/c1ccccc1O)NC(=O)c1ccccc1)C(=O)O (centres undefined)	> 100 µM	> 100 µM	> 100 µM	–	> 100 µM	> 100 µM	> 100 µM	> 100 µM	> 100 µM	–	–	–	–	–	–	–	–	–	–	–
O=C(c1ccccc1)N1C(=S)N=C(Nc2ccccc2)C1=Nc1ccccc1	> 100 µM	> 100 µM	> 100 µM	> 100 µM	–	> 100 µM	> 100 µM	> 100 µM	> 100 µM	> 100 µM	–	–	–	–	–	–	–	–	–	–
CC(C)CCn1nc(N)c2nc3ccccc3nc21	> 100 µM	> 100 µM	> 100 µM	> 100 µM	> 100 µM	> 100 µM	–	> 100 µM	> 100 µM	–	–	–	–	–	–	–	–	–	–	–
CCOC(=O)C(C)c1nc2c(Cl)c3ncccc3cc2[nH]c1=O (centres undefined)	68.4 µM	> 100 µM	> 100 µM	> 100 µM	–	> 100 µM	> 100 µM	> 100 µM	> 100 µM	> 100 µM	–	–	–	–	–	–	–	–	–	–
